Like-named read-outs stand apart in the source and are kept apart here. Bounds are passed on as bounds.

Data set [1] deals with mTOR (Homo sapiens, UniProt P42345). Briefly: mTOR enzyme assay (DELFIA format, His6-S6K substrate). Format: biochemical.
Data set [2] concerns the target PI3Kγ (Homo sapiens, UniProt P48736). Nature of the data set: PI3K-gamma fluorescence polarization assay. Format: biochemical. The note with it: read-out: PI3Kγ Median IC50. (In general: In fluorescence polarisation assays a small probe gives low polarisation when free and higher when bound to something large.)
Data set [3] concerns the target PI3Kα (Homo sapiens, UniProt P42336). Nature of the data set: PI3K-alpha fluorescence polarization assay. To be noted: read-out: PI3Kα Median IC50. Format: biochemical.
Where [4] appears, read: read-out: mTOR Kinase Median IC50.

Chain of PI3Kγ (P48736 whole entry, species assumed): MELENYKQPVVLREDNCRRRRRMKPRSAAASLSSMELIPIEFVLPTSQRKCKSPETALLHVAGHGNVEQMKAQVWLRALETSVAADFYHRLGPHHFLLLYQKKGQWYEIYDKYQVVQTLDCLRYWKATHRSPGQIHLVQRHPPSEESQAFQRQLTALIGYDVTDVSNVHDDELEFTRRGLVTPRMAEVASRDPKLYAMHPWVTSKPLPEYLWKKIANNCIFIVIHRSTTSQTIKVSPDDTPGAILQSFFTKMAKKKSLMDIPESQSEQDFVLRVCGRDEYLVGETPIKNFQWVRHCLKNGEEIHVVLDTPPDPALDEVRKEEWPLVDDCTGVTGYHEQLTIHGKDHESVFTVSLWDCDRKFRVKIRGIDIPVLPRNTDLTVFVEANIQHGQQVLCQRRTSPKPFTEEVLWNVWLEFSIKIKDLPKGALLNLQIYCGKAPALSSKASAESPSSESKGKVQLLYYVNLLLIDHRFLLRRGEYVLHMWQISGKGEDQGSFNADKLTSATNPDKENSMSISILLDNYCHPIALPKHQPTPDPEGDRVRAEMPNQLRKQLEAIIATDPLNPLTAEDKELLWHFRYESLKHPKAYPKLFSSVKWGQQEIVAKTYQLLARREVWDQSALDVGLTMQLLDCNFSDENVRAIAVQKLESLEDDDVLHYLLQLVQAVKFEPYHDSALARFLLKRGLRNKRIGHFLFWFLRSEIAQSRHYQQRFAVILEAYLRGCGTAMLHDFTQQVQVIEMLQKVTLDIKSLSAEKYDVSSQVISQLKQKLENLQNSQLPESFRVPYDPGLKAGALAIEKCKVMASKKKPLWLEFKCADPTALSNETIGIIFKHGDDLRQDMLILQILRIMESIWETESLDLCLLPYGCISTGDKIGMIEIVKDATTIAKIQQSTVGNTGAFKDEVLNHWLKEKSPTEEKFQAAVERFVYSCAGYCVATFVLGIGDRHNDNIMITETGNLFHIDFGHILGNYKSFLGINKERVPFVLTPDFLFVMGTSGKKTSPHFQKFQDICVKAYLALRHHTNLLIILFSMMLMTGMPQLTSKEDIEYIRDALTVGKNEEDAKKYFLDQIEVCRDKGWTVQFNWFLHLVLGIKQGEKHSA
Chain of PI3Kα (P42336 whole entry, species assumed): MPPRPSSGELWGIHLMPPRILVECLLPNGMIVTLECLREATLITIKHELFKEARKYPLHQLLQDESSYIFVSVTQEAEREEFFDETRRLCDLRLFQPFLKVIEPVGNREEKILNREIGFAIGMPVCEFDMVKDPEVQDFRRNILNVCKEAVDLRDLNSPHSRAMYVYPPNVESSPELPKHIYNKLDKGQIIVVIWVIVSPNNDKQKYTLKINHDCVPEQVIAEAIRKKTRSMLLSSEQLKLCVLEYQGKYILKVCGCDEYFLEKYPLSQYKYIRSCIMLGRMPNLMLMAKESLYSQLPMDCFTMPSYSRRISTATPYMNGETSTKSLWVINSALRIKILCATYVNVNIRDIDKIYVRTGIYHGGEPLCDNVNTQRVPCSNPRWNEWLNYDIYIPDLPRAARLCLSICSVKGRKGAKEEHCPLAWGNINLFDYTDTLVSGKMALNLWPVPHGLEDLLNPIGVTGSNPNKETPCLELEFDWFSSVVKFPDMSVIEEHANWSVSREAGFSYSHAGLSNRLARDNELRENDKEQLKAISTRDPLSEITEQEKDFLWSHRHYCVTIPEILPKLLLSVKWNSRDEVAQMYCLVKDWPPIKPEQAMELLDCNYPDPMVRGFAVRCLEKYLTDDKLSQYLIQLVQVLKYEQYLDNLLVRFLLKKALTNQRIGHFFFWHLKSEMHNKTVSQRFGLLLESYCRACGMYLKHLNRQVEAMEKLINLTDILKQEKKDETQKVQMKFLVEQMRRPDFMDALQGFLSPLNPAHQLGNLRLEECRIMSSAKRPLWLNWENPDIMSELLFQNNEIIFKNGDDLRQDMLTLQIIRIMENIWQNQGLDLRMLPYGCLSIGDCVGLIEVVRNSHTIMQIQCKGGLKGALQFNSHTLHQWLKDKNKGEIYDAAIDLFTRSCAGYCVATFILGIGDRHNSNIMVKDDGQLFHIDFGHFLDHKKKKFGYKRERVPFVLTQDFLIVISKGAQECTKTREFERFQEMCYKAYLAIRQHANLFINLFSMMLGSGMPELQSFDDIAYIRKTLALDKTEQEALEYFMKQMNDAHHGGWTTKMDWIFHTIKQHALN
Chain of PI3Kα (P27986 whole entry partner, species assumed): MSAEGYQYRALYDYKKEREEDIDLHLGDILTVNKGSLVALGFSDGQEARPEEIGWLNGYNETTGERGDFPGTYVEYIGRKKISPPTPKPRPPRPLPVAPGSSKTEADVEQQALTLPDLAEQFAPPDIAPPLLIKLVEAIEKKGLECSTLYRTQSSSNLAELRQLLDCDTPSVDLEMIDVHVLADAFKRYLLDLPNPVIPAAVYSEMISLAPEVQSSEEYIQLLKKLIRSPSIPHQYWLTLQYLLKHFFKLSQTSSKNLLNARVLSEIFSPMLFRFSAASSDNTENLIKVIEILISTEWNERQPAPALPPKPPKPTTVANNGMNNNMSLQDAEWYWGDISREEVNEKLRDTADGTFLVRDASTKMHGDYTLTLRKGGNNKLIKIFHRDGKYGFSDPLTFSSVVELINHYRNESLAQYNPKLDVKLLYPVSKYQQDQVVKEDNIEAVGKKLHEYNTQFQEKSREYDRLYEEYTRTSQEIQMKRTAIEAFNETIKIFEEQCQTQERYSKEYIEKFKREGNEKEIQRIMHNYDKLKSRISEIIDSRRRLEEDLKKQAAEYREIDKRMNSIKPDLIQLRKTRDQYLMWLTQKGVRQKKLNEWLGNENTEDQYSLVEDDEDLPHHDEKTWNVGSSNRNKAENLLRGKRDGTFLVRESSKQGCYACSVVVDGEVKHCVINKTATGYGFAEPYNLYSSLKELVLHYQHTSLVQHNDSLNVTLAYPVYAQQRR

Broadly, the IC50 is the concentration that inhibits the measured activity by half. The term melting point denotes the temperature, or range, at which the solid turns liquid. Consider `CN(C(=O)C1CCN(c2ccnc3c2c(/C=C2\Oc4ccc(NC(=O)Nc5cccnc5)cc4C2=O)cn3C)CC1)c1cccnc1` [Compound 269, N-methyl-1-{1-methyl-3-[(Z)-{3-oxo-5-[(pyridin-3-ylcarbamoyl)amino]-1-benzofuran-2(3H)-ylidene}methyl]-1H-pyrrolo[2,3-b]pyridin-4-yl}-N-pyridin-3-ylpiperidine-4-carboxamide], for which the melting point is 184 to 194 °C. Also, the IC50 in data set [1] (setting [4]) amounted to 13 nM. The IC50 in data set [2] came out at 5750 nM. Besides, in data set [3], the IC50 was determined as 4960 nM.

For `Cn1cc(/C=C2\Oc3ccc(NC(=O)Nc4cccnc4)cc3C2=O)c2c(N3CCC(C(=O)NCc4cccnc4)CC3)ccnc21` [Compound 270, 1-{1-methyl-3-[(Z)-{3-oxo-5-[(pyridin-3-ylcarbamoyl)amino]-1-benzofuran-2(3H)-ylidene}methyl]-1H-pyrrolo[2,3-b]pyridin-4-yl}-N-(pyridin-3-ylmethyl)piperidine-4-carboxamide], the melting point was 187 to 194 °C. Besides, the IC50 in data set [1] (setting [4]) turned out to be 6 nM. In data set [2], the IC50 is above 10000 nM. In data set [3], the IC50 is above 10000 nM.

Molecule `Cn1cc(/C=C2\Oc3ccc(NC(=O)Nc4cccnc4)cc3C2=O)c2c(N3CCC(C(=O)NCc4ccncc4)CC3)ccnc21` [Compound 271, 1-{1-methyl-3-[(Z)-{3-oxo-5-[(pyridin-3-ylcarbamoyl)amino]-1-benzofuran-2(3H)-ylidene}methyl]-1H-pyrrolo[2,3-b]pyridin-4-yl}-N-(pyridin-4-ylmethyl)piperidine-4-carboxamide] yielded a melting point of 208 to 216 °C. For the same molecule, the concentration for half-maximal inhibition (IC50) in data set [1] (setting [4]) came to 9 nM. Moreover, in data set [2], the IC50 worked out at 3910 nM. Besides, the IC50 in data set [3] worked out at 4040 nM.

Molecule `CN1CC2CC1CN2C(=O)C1CCN(c2ccnc3c2c(/C=C2\Oc4ccc(NC(=O)Nc5cccnc5)cc4C2=O)cn3C)CC1` (stereo not drawn) [Compound 272, 1-{(2Z)-2-[(1-methyl-4-{4-[(5-methyl-2,5-diazabicyclo[2.2.1]hept-2-yl)carbonyl]piperidin-1-yl}-1H-pyrrolo[2,3-b]pyridin-3-yl)methylidene]-3-oxo-2,3-dihydro-1-benzofuran-5-yl}-3-pyridin-3-ylurea] returned a melting point of 151 to 164 °C. Moreover, the IC50 in data set [1] (setting [4]) is 19 nM. Besides, in data set [2], the IC50 stood at 2410 nM. In addition, the IC50 in data set [3] is above 10000 nM.

Regarding `Cn1cc(/C=C2\Oc3ccc(NC(=O)Nc4cccnc4)cc3C2=O)c2c(N3C4CCCC3COC4)ccnc21` [Compound 276, 1-[(2Z)-2-{[1-methyl-4-(3-oxa-9-azabicyclo[3.3.1]non-9-yl)-1H-pyrrolo[2,3-b]pyridin-3-yl]methylidene}-3-oxo-2,3-dihydro-1-benzofuran-5-yl]-3-pyridin-3-ylurea], the melting point was 240 to 245 °C (dec.). Further, the IC50 in data set [1] (setting [4]) came out at 31.5 nM. Besides, the IC50 in data set [2] was determined as 1120 nM. In addition, the IC50 in data set [3] came to 2260 nM.

Regarding `Cn1cc(/C=C2\Oc3ccc(NC(=O)Nc4cccnc4)cc3C2=O)c2c(N3CC4CCC3CO4)ccnc21` (stereo not drawn) [Compound 277, 1-[(2Z)-2-{[1-methyl-4-(2-oxa-5-azabicyclo[2.2.2]oct-5-yl)-1H-pyrrolo[2,3-b]pyridin-3-yl]methylidene}-3-oxo-2,3-dihydro-1-benzofuran-5-yl]-3-pyridin-3-ylurea], the melting point is 227 to 235 °C. Moreover, the IC50 in data set [1] (setting [4]) worked out at 7.5 nM. In addition, the IC50 in data set [2] is 2590 nM. For the same molecule, in data set [3], the IC50 came to 296 nM.

Turning to `CNC(=O)Nc1ccc2c(c1)C(=O)/C(=C/c1cn(C)c3nccc(N4CC5CCC4CO5)c13)O2` (stereo not drawn) [Compound 279, 1-methyl-3-[(2Z)-2-{[1-methyl-4-(2-oxa-5-azabicyclo[2.2.2]oct-5-yl)-1H-pyrrolo[2,3-b]pyridin-3-yl]methylidene}-3-oxo-2,3-dihydro-1-benzofuran-5-yl]urea], the melting point was 197 to 205 °C (dec.). In data set [1] (setting [4]), the IC50 was 11 nM. For the same molecule, in data set [2], the IC50 is 643 nM. Moreover, the IC50 in data set [3] was 128 nM.

Consider `Cn1cc(/C=C2\Oc3ccc(NC(=O)Nc4cccnc4)cc3C2=O)c2c(N3C4CCC3COC4)ccnc21` [Compound 280, 1-[(2Z)-2-{[1-methyl-4-(3-oxa-8-azabicyclo[3.2.1]oct-8-yl)-1H-pyrrolo[2,3-b]pyridin-3-yl]methylidene}-3-oxo-2,3-dihydro-1-benzofuran-5-yl]-3-pyridin-3-ylurea], for which the melting point was 250 to 255 °C (dec.). In data set [1], this molecule showed an IC50 of 42 nM. For the same molecule, in data set [2], the IC50 was 995 nM. For the same molecule, the IC50 in data set [3] is 179 nM.

Consider `CNC(=O)Nc1ccc2c(c1)C(=O)/C(=C/c1cn(C)c3nccc(N4C5CCC4COC5)c13)O2` [Compound 281, 1-methyl-3-[(2Z)-2-{[1-methyl-4-(3-oxa-8-azabicyclo[3.2.1]oct-8-yl)-1H-pyrrolo[2,3-b]pyridin-3-yl]methylidene}-3-oxo-2,3-dihydro-1-benzofuran-5-yl]urea], for which the melting point is 226 to 232 °C (dec.). Moreover, the IC50 in data set [1] (setting [4]) amounted to 31 nM. In data set [2], the IC50 is 1710 nM. For the same molecule, in data set [3], the IC50 worked out at 104 nM.

As for `Cn1cc(/C=C2\Oc3ccc(NC(=O)Nc4cccnc4)cc3C2=O)c2c(N3CC4COC(C3)O4)ccnc21` (stereo not drawn) [Compound 282, 1-[(2Z)-2-{[4-(6,8-dioxa-3-azabicyclo[3.2.1]oct-3-yl)-1-methyl-1H-pyrrolo[2,3-b]pyridin-3-yl]methylidene}-3-oxo-2,3-dihydro-1-benzofuran-5-yl]-3-pyridin-3-ylurea], the melting point was 224 to 227 °C (dec.). Also, the IC50 in data set [1] (setting [4]) came out at 21 nM. The IC50 in data set [2] came to 642 nM. For the same molecule, the IC50 in data set [3] was 288 nM.

As for `Cn1cc(/C=C2\Oc3ccc(NC(=O)Nc4cccnc4)cc3C2=O)c2c(N3CC4CC3CO4)ccnc21` (stereo not drawn) [Compound 283, 1-[(2Z)-2-{[1-methyl-4-(2-oxa-5-azabicyclo[2.2.1]hept-5-yl)-1H-pyrrolo[2,3-b]pyridin-3-yl]methylidene}-3-oxo-2,3-dihydro-1-benzofuran-5-yl]-3-pyridin-3-ylurea], the melting point is 218 to 222 °C (dec.). The IC50 in data set [1] (setting [4]) was found to be 27 nM. Moreover, the IC50 in data set [2] is 779 nM. Further, in data set [3], the IC50 stood at 350 nM.

With `CNC(=O)Nc1ccc2c(c1)C(=O)/C(=C/c1cn(C)c3nccc(N4CC5CC4CO5)c13)O2` (stereo not drawn) [Compound 284, 1-methyl-3-[(2Z)-2-{[1-methyl-4-(2-oxa-5-azabicyclo[2.2.1]hept-5-yl)-1H-pyrrolo[2,3-b]pyridin-3-yl]methylidene}-3-oxo-2,3-dihydro-1-benzofuran-5-yl]urea], the melting point was 242 to 247 °C (dec.). Besides, the IC50 in data set [1] (setting [4]) is 50 nM. In data set [2], the IC50 is 721 nM. In data set [3], the IC50 worked out at 275 nM.

For `Cn1cc(/C=C2\Oc3ccc(NC(=O)Nc4cccnc4)cc3C2=O)c2c(N3CCC(C(=O)N4C5CCC4COC5)CC3)ccnc21` [Compound 292, 1-[(2Z)-2-({1-methyl-4-[4-(3-oxa-8-azabicyclo[3.2.1]oct-8-ylcarbonyl)piperidin-1-yl]-1H-pyrrolo[2,3-b]pyridin-3-yl}methylidene)-3-oxo-2,3-dihydro-1-benzofuran-5-yl]-3-pyridin-3-ylurea], the melting point fell in the range of 197 to 203 °C. For the same molecule, the IC50 in data set [1] (setting [4]) is 5.4 nM. Also, the IC50 in data set [2] was above 10000 nM. Further, the IC50 in data set [3] came out at 3480 nM.

`Cn1cc(/C=C2\Oc3ccc(NC(=O)Nc4cccnc4)cc3C2=O)c2c(N3CC4CNCC(C3)O4)ccnc21` [Compound 293, 1-[(2Z)-2-{[1-methyl-4-(9-oxa-3,7-diazabicyclo[3.3.1]non-3-yl)-1H-pyrrolo[2,3-b]pyridin-3-yl]methylidene}-3-oxo-2,3-dihydro-1-benzofuran-5-yl]-3-pyridin-3-ylurea] came in with a melting point of 193 to 200 °C. In data set [1] (setting [4]), the IC50 was determined as 300 nM. The IC50 in data set [2] was 862 nM. The IC50 in data set [3] was above 10000 nM.

In the case of `CCC1(CC)CN(c2ccnc3c2c(/C=C2\Oc4ccc(NC(=O)Nc5cccnc5)cc4C2=O)cn3C)CCO1` [Compound 295, 1-[(2Z)-2-{[4-(2,2-diethylmorpholin-4-yl)-1-methyl-1H-pyrrolo[2,3-b]pyridin-3-yl]methylidene}-3-oxo-2,3-dihydro-1-benzofuran-5-yl]-3-pyridin-3-ylurea], the melting point was 225 to 228 °C. Further, the IC50 in data set [1] (setting [4]) is 21.5 nM. In data set [2], the IC50 is 1230 nM. The IC50 in data set [3] was 721 nM.

The molecule `C[C@@H]1CN(c2ccnc3c2c(/C=C2\Oc4ccc(NC(=O)Nc5cccnc5)cc4C2=O)cn3C)C[C@H](C)O1` [Compound 296, 1-[(2Z)-2-({4-[(2R,6S)-2,6-dimethylmorpholin-4-yl]-1-methyl-1H-pyrrolo[2,3-b]pyridin-3-yl}methylidene)-3-oxo-2,3-dihydro-1-benzofuran-5-yl]-3-pyridin-3-ylurea] yielded a melting point of 255 to 260 °C. The IC50 in data set [1] (setting [4]) is 19 nM. The IC50 in data set [2] amounted to 1160 nM. Further, the IC50 in data set [3] is 239 nM.

Regarding `COCCC1CN(c2ccnc3c2c(/C=C2\Oc4ccc(NC(=O)Nc5cccnc5)cc4C2=O)cn3C)CCO1` (stereo not drawn) [Compound 297, 1-[(2Z)-2-({4-[2-(2-methoxyethyl)morpholin-4-yl]-1-methyl-1H-pyrrolo[2,3-b]pyridin-3-yl}methylidene)-3-oxo-2,3-dihydro-1-benzofuran-5-yl]-3-pyridin-3-ylurea], the melting point lay within 225 to 260 °C. Moreover, the IC50 in data set [1] (setting [4]) was found to be 25.5 nM. The IC50 in data set [2] is 1930 nM. In addition, the IC50 in data set [3] was determined as 884 nM.

For `Cn1cc(/C=C2\Oc3ccc(NC(=O)Nc4cccnc4)cc3C2=O)c2c(N3CCOC(C)(C)C3)ccnc21` [Compound 301, 1-[(2Z)-2-{[4-(2,2-dimethylmorpholin-4-yl)-1-methyl-1H-pyrrolo[2,3-b]pyridin-3-yl]methylidene}-3-oxo-2,3-dihydro-1-benzofuran-5-yl]-3-pyridin-3-ylurea], the melting point was 222 to 226 °C. Further, the IC50 in data set [1] (setting [4]) came out at 13 nM. Moreover, in data set [2], the IC50 was determined as 1110 nM. Besides, the IC50 in data set [3] stood at 566 nM.

(Values after patent US20090298820A1, “3-SUBSTITUTED-1H-PYRROLO[2,3-B]PYRIDINE AND 3-SUBSTITUTED-1H-PYRROLO[3,2-B]PYRIDINE COMPOUNDS, THEIR USE AS MTOR KINASE AND PI3 KINASE INHIBITORS, AND THEIR SYNTHESES” (Wyeth, priority 2008, published 2009).)
